Measurements: US4257941A, “Polycyclic nitrogen-containing compounds” (BASF Aktiengesellschaft, priority 1976, dated 1981)

Tests used:
wheat = assay: Growth height of wheat, greenhouse (Example 7); type: in vivo, wheat (Opal variety); conditions: for Plant height relative: control 100
Excerpt: (§1) In the greenhouse, the four cereals wheat ("Opal" variety), rye ("Petkuser"), barley ("Villa") and oats ("Flamingskrone") were sown in plastic dishes 11.5 cm in diameter in a sandy loam adequately supplied with nutrients. The active ingredients were applied at various rates to the soil and to the leaves. When applied to the soil, the active ingredient were sprayed onto the surface of the soil on the day of sowing; in the case of leaf treatment, the leaves were sprayed in the usual manner at a growth height of the plants of 10 cm. During the 18 day growth period, the treated plants grew much more slowly than the untreated control, a fact later confirmed by measurements of the stem length. Measurements were taken of 100 plants from each series.
(§2) The prior art agent used for comparison purposes was N-2-chloroethyl-N,N,N-trimethylammonium chloride (CCC; German Printed Application DAS No. 1,294,734).

spring barley = assay: Stem length, lateral shoots and yield in spring barley (Example 12); type: in vivo; conditions: 3 kg/ha
Description: To examine the effect of the various substances on spring barley up to the maturity stage of the plants, an experiment was carried out in large pots. The plants were grown in quartz sand (fertilized with 2 g N as ammonium nitrate in 3 doses, 1 g P2 O5 as secondary sodium phosphate, 1.5 g K2 O as potassium sulfate, 0.5 g MgO as magnesium sulfate, 10 ml of a solution of trace elements, and 10 mg of iron as an iron complex). […] The treated plants were up to 10% shorter than the control, and yields were also slightly up.

rice = assay: Action on rice (Example 23); type: in vivo; conditions: leaf; for Plant height: 66 days; for Plant height relative: control 100
Description: At a growth height of 11 to 13 cm the active ingredients were sprayed onto the leaves in the usual manner. The plants were measured after 66 days.

cotton = assay: Induction of flowering and growth height of cotton, hydroponic (Example 18); type: in vivo; conditions: for Shoot length: 4 weeks; for No. of squares per vessel (3 plants): control 0, average of 3 vessels; for Shoot length rel.: control 100
Description: Cotton plants were subjected to hydroponic treatment under the same conditions as in Example 16. The active ingredients were added (1.25 mg/vessel=0.3 ppm and 5 mg/vessel=1.25 ppm) at a height of the plant of 15 to 18 cm. […] The results below are averages from 3 vessels, each of 3 plants.

oats = assay: Growth height of oats, greenhouse (Example 10); type: in vivo, oats (Flamingskrone); conditions: for Plant height relative: control 100
Excerpt: as §1, §2

Triticum aestivum = assay: Growth height of young cereal plants (Example 11, Table A); type: in vivo
Excerpt: (§3) The vessels used for the experiments were plastic pots having a volume of 1,130 cm^3 (Table A) or paraffined paper cups having a volume of 170 cm^3 (Table B). The pots and cups were filled with a sandy loam. The seeds of the test plants-separated by species-were sown shallow. Preemergence treatment (soil treatment) was effected immediately after sowing and before germination of the seeds. Seeds lying on the surface came into contact with the active ingredients. Postemergence treatment (leaf treatment) took place at an average growth height of the plants (depending on the rate of growth) of from 6 to 10 cm. The substances were suspended, emulsified or dissolved in water as diluent and applied by means of fine nozzles. The vessels were kept in the greenhouse in a temperature range of 12° C. to 25° C., and were regularly sprinkler irrigated for the duration of the experiment. The observation period was 6 to 8 weeks.

Hordeum vulgare = assay: as above; type: in vivo; conditions: soil treatment
Excerpt: as §3

sunflowers = assay: Action on sunflowers (Example 24); type: in vivo; conditions: for Plant height relative: control 100
Excerpt: The active ingredients were applied both to the soil and to the leaves.

barley = assay: Growth height of barley, greenhouse (Example 9); type: in vivo, barley (Villa); conditions: for Plant height relative: control 100
Excerpt: as §1, §2

rye = assay: Growth height of rye, greenhouse (Example 8); type: in vivo, rye (Petkuser); conditions: for Plant height relative: control 100
Excerpt: as §1, §2

Euphorbia geniculata = assay: Growth-regulating action, preemergence, greenhouse (Example 35, Table 2); type: in vivo; conditions: for growth height relative: control 100
Excerpt: as §3
(§4) Further experiments were carried out in the greenhouse under the condition described in Example 11. […] As the plants which were examined liked the warmth (Eupghorbia geniculate, Arachis hypogaea, Cynodon dactylon), they were kept at from 20°-30° C. Cynodon dactylon from seed was cut once and the young growth treated postemergence.

Cynodon dactylon = assay: Growth-regulating action, postemergence, greenhouse (Example 35, Table 1); type: in vivo; conditions: for growth height relative: control 100
Excerpt: as §3, §4

Arachis hypogaea = assay: as above; type: in vivo; conditions: for growth height relative: control 100
Excerpt: as §3, §4

C[N+](C)(C)CCCl.[Cl-] [CCC, N-2-chloroethyl-N,N,N-trimethylammonium chloride, reference compound]
Plant height (wheat; leaf, 0.125 kg/ha): 28.0 cm
Plant height relative (wheat; leaf, 0.125 kg/ha): 93.3
Plant height (wheat; leaf, 0.5 kg/ha): 26.0 cm
Plant height relative (wheat; leaf, 0.5 kg/ha): 86.7
Plant height (wheat; leaf, 1.0 kg/ha): 26.0 cm
Plant height relative (wheat; leaf, 1.0 kg/ha): 86.7
Plant height (wheat; leaf, 2.0 kg/ha): 23.0 cm
Plant height relative (wheat; leaf, 2.0 kg/ha): 76.7
Plant height (wheat; leaf, 4.0 kg/ha): 23.0 cm
Plant height relative (wheat; leaf, 4.0 kg/ha): 76.7
Plant height (wheat; soil, 0.5 kg/ha): 26.0 cm
Plant height relative (wheat; soil, 0.5 kg/ha): 83.9
Plant height (wheat; soil, 1.0 kg/ha): 24.5 cm
Plant height relative (wheat; soil, 1.0 kg/ha): 79.0
Plant height (wheat; soil, 2.0 kg/ha): 22.5 cm
Plant height relative (wheat; soil, 2.0 kg/ha): 72.6
Plant height (wheat; soil, 6.0 kg/ha): 22.0 cm
Plant height relative (wheat; soil, 6.0 kg/ha): 71.0
Ear weight (spring barley): 95.0 g
No. of lateral shoots (spring barley): 99
Stem length (spring barley): 74.2 cm
Ear weight relative (spring barley; control 100): 105.1
No. of lateral shoots relative (spring barley; control 100): 106.5
Stem length relative (spring barley; control 100): 96.5
Plant height (rice; 1.0 kg/ha): 38.0 cm
Plant height relative (rice; 1.0 kg/ha): 93.6
Plant height (rice; 2.0 kg/ha): 40.5 cm
Plant height relative (rice; 2.0 kg/ha): 99.8
Plant height (rice; 4.0 kg/ha): 38.5 cm
Plant height relative (rice; 4.0 kg/ha): 94.8
Plant height (rice; 6.0 kg/ha): 40.0 cm
Plant height relative (rice; 6.0 kg/ha): 98.5
Shoot length (cotton; 0.3 ppm): 36.2 cm
No. of squares per vessel (3 plants) (cotton; 0.3 ppm): 0
Shoot length rel. (cotton; 0.3 ppm): 76.7
Shoot length (cotton; 1.25 ppm): 34.8 cm
No. of squares per vessel (3 plants) (cotton; 1.25 ppm): 0
Shoot length rel. (cotton; 1.25 ppm): 73.8
buds / squares (cotton; 4 week growth period): withered in the nascent stage and dropped off
Plant height (oats; leaf, 0.125 kg/ha): 28.0 cm
Plant height relative (oats; leaf, 0.125 kg/ha): 100
Plant height (oats; leaf, 0.5 kg/ha): 28.5 cm
Plant height relative (oats; leaf, 0.5 kg/ha): 101.8
Plant height (oats; leaf, 1.0 kg/ha): 28.0 cm
Plant height relative (oats; leaf, 1.0 kg/ha): 100
Plant height (oats; leaf, 2.0 kg/ha): 27.0 cm
Plant height relative (oats; leaf, 2.0 kg/ha): 96.4
Plant height (oats; leaf, 4.0 kg/ha): 25.5 cm
Plant height relative (oats; leaf, 4.0 kg/ha): 91.1
Plant height (oats; soil, 0.5 kg/ha): 28.0 cm
Plant height relative (oats; soil, 0.5 kg/ha): 100
Plant height (oats; soil, 1.0 kg/ha): 28.0 cm
Plant height relative (oats; soil, 1.0 kg/ha): 100
Plant height (oats; soil, 2.0 kg/ha): 27.0 cm
Plant height relative (oats; soil, 2.0 kg/ha): 96.4
Plant height (oats; soil, 6.0 kg/ha): 26.0 cm
Plant height relative (oats; soil, 6.0 kg/ha): 92.9
Growth height (Triticum aestivum; leaf treatment, 0.5 kg/ha): 40 cm
Growth height (Triticum aestivum; leaf treatment, 1.0 kg/ha): 40 cm
Growth height (Triticum aestivum; leaf treatment, 2.0 kg/ha): 40 cm
Growth height (Triticum aestivum; soil treatment, 0.5 kg/ha): 40 cm
Growth height (Triticum aestivum; soil treatment, 1.0 kg/ha): 40 cm
Growth height (Triticum aestivum; soil treatment, 2.0 kg/ha): 33 cm
Growth height (Hordeum vulgare; 0.5 kg/ha): 36 cm
Growth height (Hordeum vulgare; 1.0 kg/ha): 31 cm
Growth height (Hordeum vulgare; 2.0 kg/ha): 33 cm
Plant height (sunflowers; leaf, 1.5 kg/ha): 38.0 cm
Plant height relative (sunflowers; leaf, 1.5 kg/ha): 99
Plant height (sunflowers; leaf, 6.0 kg/ha): 32.5 cm
Plant height relative (sunflowers; leaf, 6.0 kg/ha): 85
Plant height (sunflowers; soil, 3.0 kg/ha): 40.0 cm
Plant height relative (sunflowers; soil, 3.0 kg/ha): 110
Plant height (sunflowers; soil, 12.0 kg/ha): 36.0 cm
Plant height relative (sunflowers; soil, 12.0 kg/ha): 99
Plant height (barley; leaf, 0.125 kg/ha): 29.0 cm
Plant height relative (barley; leaf, 0.125 kg/ha): 96.7
Plant height (barley; leaf, 0.5 kg/ha): 28.5 cm
Plant height relative (barley; leaf, 0.5 kg/ha): 95.0
Plant height (barley; leaf, 1.0 kg/ha): 26.5 cm
Plant height relative (barley; leaf, 1.0 kg/ha): 88.3
Plant height (barley; leaf, 2.0 kg/ha): 27.0 cm
Plant height relative (barley; leaf, 2.0 kg/ha): 90.0
Plant height (barley; leaf, 4.0 kg/ha): 27.0 cm
Plant height relative (barley; leaf, 4.0 kg/ha): 90.0
Plant height (barley; soil, 0.5 kg/ha): 28.0 cm
Plant height relative (barley; soil, 0.5 kg/ha): 88.9
Plant height (barley; soil, 1.0 kg/ha): 27.0 cm
Plant height relative (barley; soil, 1.0 kg/ha): 85.7
Plant height (barley; soil, 2.0 kg/ha): 26.0 cm
Plant height relative (barley; soil, 2.0 kg/ha): 82.5
Plant height (barley; soil, 6.0 kg/ha): 25.0 cm
Plant height relative (barley; soil, 6.0 kg/ha): 79.4
Plant height (rye; leaf, 0.125 kg/ha): 29.0 cm
Plant height relative (rye; leaf, 0.125 kg/ha): 98.3
Plant height (rye; leaf, 0.5 kg/ha): 28.0 cm
Plant height relative (rye; leaf, 0.5 kg/ha): 94.9
Plant height (rye; leaf, 1.0 kg/ha): 27.5 cm
Plant height relative (rye; leaf, 1.0 kg/ha): 93.2
Plant height (rye; leaf, 2.0 kg/ha): 27.5 cm
Plant height relative (rye; leaf, 2.0 kg/ha): 93.2
Plant height (rye; leaf, 4.0 kg/ha): 29.0 cm
Plant height relative (rye; leaf, 4.0 kg/ha): 98.3
Plant height (rye; soil, 0.5 kg/ha): 28.0 cm
Plant height relative (rye; soil, 0.5 kg/ha): 96.6
Plant height (rye; soil, 1.0 kg/ha): 27.5 cm
Plant height relative (rye; soil, 1.0 kg/ha): 94.8
Plant height (rye; soil, 2.0 kg/ha): 28.0 cm
Plant height relative (rye; soil, 2.0 kg/ha): 96.6
Plant height (rye; soil, 6.0 kg/ha): 26.5 cm
Plant height relative (rye; soil, 6.0 kg/ha): 91.4

CN(C)NC(=O)CCC(=O)O [drawing 439]
Growth height (Euphorbia geniculata; 0.25 kg/ha): 12 cm
growth height relative (Euphorbia geniculata; 0.25 kg/ha): 109
Growth height (Euphorbia geniculata; 0.5 kg/ha): 12 cm
growth height relative (Euphorbia geniculata; 0.5 kg/ha): 109
Growth height (Euphorbia geniculata; 1.0 kg/ha): 10 cm
growth height relative (Euphorbia geniculata; 1.0 kg/ha): 91

FC(F)(F)c1cccc(N2C3C4CC(C5N=NC45)C32)c1 (stereo not shown) [drawing 438]
Growth height (Euphorbia geniculata; 0.25 kg/ha): 6 cm
growth height relative (Euphorbia geniculata; 0.25 kg/ha): 54
Growth height (Euphorbia geniculata; 0.5 kg/ha): 5 cm
growth height relative (Euphorbia geniculata; 0.5 kg/ha): 45
Growth height (Euphorbia geniculata; 1.0 kg/ha): 3 cm
growth height relative (Euphorbia geniculata; 1.0 kg/ha): 27

C[N+](C)(C)CCCl [[ClCH2CH2N(CH3⊕)3]Cl⊖, reference compound]
Growth height (Cynodon dactylon; 0.5 kg/ha): 9 cm
growth height relative (Cynodon dactylon; 0.5 kg/ha): 82
Growth height (Cynodon dactylon; 2.0 kg/ha): 9 cm
growth height relative (Cynodon dactylon; 2.0 kg/ha): 82
Growth height (Arachis hypogaea; 0.5 kg/ha): 16 cm
growth height relative (Arachis hypogaea; 0.5 kg/ha): 100
Growth height (Arachis hypogaea; 2.0 kg/ha): 14 cm
growth height relative (Arachis hypogaea; 2.0 kg/ha): 87
Growth height (Euphorbia geniculata; 0.25 kg/ha): 10 cm
growth height relative (Euphorbia geniculata; 0.25 kg/ha): 91
Growth height (Euphorbia geniculata; 0.5 kg/ha): 10 cm
growth height relative (Euphorbia geniculata; 0.5 kg/ha): 91
Growth height (Euphorbia geniculata; 1.0 kg/ha): 9 cm
growth height relative (Euphorbia geniculata; 1.0 kg/ha): 82
